The record followed here is ChEMBL document CHEMBL5653615 (J Biol Chem, 2013).

What is called inhibition is the change of the read-out against control, counted positive when it falls.

Experiment [1] has as its target BDNF/NT-3 growth factors receptor (Homo sapiens) (UniProt Q16620). Kind of experiment: Inhibition of human TRKB at 1.82 nM by HotSpot assay relative to control.
Experiment [2] deals with Serine/threonine-protein kinase Nek7 (Homo sapiens) (UniProt Q8TDX7). Nature of the experiment: Inhibition of human NEK7 at 1.82 nM by HotSpot assay relative to control.
Experiment [3] has as its target T1, Mitogen-activated protein kinase 12 (Homo sapiens) (UniProt P53778).
T1 sequence (whole entry): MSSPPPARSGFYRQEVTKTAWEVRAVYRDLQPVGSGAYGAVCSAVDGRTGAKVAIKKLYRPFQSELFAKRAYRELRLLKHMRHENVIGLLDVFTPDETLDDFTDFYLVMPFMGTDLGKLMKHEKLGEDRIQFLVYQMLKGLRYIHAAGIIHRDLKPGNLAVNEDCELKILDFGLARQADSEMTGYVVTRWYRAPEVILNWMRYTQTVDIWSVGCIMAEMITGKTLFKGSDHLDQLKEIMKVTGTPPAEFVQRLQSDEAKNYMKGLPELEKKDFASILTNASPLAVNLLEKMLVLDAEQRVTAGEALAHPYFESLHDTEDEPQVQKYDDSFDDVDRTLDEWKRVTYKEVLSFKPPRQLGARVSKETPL
Kind of experiment: Inhibition of human P38g at 1.82 nM by HotSpot assay relative to control.

Experiment [4] addresses Ephrin type-A receptor 5 (Homo sapiens) (UniProt P54756). Nature of the experiment: Inhibition of human EPHA5 at 1.82 nM by HotSpot assay relative to control.
Experiment [5] concerns the target Serine/threonine-protein kinase PAK 3 (Homo sapiens) (UniProt O75914). Nature of the experiment: Inhibition of human PAK3 at 1.82 nM by HotSpot assay relative to control.
Experiment [6] addresses CDK3/Cyclin E (Homo sapiens) (UniProt P24864+Q00526). Kind of experiment: Inhibition of human CDK3/cyclin E at 1.82 nM by HotSpot assay relative to control. The experiment is classed as protein-complex assay.
In experiment [7] the target is Tyrosine-protein kinase JAK1 (Homo sapiens) (UniProt P23458). Kind of experiment: Inhibition of human JAK1 at 1.82 nM by HotSpot assay relative to control.
Tyrosine-protein kinase JAK1 (Homo sapiens), sequence (P23458 whole entry, canonical isoform): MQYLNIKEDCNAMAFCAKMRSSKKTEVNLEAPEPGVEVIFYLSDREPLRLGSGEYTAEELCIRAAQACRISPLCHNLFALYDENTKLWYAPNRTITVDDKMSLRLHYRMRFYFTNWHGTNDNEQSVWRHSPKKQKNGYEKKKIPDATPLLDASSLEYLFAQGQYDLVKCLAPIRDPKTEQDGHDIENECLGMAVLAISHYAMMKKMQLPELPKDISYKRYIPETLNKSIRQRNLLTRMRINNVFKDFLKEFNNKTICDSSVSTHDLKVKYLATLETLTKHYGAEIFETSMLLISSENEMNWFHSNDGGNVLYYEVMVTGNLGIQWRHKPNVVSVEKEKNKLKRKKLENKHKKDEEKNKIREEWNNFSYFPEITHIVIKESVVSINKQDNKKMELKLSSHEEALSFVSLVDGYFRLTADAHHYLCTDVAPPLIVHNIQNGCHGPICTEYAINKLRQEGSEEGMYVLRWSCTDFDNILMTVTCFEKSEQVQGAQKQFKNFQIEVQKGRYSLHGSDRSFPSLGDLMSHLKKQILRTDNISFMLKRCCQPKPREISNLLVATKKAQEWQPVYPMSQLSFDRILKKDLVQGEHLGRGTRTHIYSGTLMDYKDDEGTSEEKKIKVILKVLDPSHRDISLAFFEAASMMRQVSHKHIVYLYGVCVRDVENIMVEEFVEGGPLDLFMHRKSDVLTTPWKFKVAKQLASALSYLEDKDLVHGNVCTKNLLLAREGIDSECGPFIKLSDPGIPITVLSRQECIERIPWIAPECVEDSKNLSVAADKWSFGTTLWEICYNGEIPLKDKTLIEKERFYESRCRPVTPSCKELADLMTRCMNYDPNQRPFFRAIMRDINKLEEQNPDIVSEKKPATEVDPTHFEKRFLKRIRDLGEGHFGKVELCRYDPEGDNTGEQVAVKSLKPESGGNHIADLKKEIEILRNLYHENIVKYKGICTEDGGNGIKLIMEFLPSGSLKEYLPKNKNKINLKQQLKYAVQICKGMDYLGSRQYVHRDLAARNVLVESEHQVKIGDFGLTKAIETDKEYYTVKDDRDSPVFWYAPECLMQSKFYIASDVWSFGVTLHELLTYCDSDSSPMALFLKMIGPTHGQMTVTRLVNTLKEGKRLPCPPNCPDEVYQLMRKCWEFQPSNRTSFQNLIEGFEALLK
Experiment [8] deals with Casein kinase I isoform gamma-3 (Homo sapiens) (UniProt Q9Y6M4). Nature of the experiment: Inhibition of human CK1g3 at 1.82 nM by HotSpot assay relative to control.
In experiment [9] the target is T2, Protein kinase C iota type (Homo sapiens) (UniProt P41743).
T2 sequence (whole entry): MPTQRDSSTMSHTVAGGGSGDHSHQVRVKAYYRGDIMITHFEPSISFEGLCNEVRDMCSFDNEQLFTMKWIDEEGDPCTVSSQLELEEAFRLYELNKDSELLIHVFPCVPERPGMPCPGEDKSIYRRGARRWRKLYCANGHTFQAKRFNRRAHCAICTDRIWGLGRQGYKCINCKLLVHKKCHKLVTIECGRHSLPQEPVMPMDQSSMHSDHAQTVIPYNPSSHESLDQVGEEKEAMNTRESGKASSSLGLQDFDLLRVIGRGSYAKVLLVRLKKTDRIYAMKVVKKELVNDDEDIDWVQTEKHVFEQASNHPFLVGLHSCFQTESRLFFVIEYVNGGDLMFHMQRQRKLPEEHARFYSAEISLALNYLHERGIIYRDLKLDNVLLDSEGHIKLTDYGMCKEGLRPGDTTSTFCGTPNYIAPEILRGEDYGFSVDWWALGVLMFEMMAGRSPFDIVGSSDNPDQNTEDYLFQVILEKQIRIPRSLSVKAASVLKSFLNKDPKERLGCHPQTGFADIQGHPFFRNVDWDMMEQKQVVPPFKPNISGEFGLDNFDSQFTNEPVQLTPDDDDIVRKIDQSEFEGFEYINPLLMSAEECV
Nature of the experiment: Inhibition of human PKCiota at 1.82 nM by HotSpot assay relative to control.

Experiment [10] deals with Casein kinase I isoform gamma-1 (Homo sapiens) (UniProt Q9HCP0). Kind of experiment: Inhibition of human CK1g1 at 500 nM by HotSpot assay relative to control.
The species entered for the next experiment is Homo sapiens. Nature of the experiment: Inhibition of human CDK2/cyclin A at 18.6 nM by HotSpot assay relative to control.
Experiment [11] has as its target Mast/stem cell growth factor receptor Kit (Homo sapiens) (UniProt P10721). Kind of experiment: Inhibition of human c-Kit at 18.6 nM by HotSpot assay relative to control.
Experiment [12] deals with Serine/threonine-protein kinase 10 (Homo sapiens) (UniProt O94804). Nature of the experiment: Inhibition of human LOK at 18.6 nM by HotSpot assay relative to control.
Serine/threonine-protein kinase 10 (Homo sapiens), sequence (O94804 whole entry, looked up): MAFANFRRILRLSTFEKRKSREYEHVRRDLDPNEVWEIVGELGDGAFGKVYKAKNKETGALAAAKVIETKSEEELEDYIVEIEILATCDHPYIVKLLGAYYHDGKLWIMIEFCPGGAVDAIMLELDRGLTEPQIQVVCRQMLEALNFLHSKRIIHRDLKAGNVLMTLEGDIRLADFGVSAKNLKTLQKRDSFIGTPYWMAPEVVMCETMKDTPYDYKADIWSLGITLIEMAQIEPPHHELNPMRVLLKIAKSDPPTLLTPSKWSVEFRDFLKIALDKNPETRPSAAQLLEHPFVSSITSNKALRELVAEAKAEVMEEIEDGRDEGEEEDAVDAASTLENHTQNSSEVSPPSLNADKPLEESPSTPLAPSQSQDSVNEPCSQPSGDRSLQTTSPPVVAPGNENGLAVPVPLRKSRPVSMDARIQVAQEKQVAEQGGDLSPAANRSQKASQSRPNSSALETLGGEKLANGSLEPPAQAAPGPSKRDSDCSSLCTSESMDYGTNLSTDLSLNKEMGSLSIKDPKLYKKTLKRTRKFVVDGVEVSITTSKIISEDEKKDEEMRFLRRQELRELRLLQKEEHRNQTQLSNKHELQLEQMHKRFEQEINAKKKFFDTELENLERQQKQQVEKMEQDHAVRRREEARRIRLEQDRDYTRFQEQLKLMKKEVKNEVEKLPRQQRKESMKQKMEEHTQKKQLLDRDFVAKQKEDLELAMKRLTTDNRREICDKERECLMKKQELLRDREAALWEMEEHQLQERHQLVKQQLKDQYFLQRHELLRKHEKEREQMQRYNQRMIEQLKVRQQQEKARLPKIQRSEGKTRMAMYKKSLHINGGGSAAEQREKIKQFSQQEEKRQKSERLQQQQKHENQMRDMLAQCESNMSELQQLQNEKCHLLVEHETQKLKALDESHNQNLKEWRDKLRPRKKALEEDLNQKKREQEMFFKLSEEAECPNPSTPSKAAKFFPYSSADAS
Experiment [13] addresses T3, Dual specificity mitogen-activated protein kinase kinase 6 (Homo sapiens) (UniProt P52564).
T3 sequence (whole entry): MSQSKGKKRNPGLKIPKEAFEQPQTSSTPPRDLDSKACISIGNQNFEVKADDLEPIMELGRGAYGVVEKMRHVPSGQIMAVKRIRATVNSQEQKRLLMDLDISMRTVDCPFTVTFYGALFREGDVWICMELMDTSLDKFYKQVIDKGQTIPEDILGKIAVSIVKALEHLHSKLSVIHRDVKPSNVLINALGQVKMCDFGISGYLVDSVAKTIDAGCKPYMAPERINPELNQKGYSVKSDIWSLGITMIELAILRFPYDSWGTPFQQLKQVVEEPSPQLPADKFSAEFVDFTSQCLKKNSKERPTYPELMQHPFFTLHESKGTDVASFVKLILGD
Nature of the experiment: Inhibition of human MKK6 at 18.6 nM by HotSpot assay relative to control.

In experiment [14] the target is Glycogen synthase kinase-3 beta (Homo sapiens) (UniProt P49841). Nature of the experiment: Inhibition of human GSK3b at 18.6 nM by HotSpot assay relative to control.
Glycogen synthase kinase-3 beta (Homo sapiens), sequence (P49841 whole entry, looked up): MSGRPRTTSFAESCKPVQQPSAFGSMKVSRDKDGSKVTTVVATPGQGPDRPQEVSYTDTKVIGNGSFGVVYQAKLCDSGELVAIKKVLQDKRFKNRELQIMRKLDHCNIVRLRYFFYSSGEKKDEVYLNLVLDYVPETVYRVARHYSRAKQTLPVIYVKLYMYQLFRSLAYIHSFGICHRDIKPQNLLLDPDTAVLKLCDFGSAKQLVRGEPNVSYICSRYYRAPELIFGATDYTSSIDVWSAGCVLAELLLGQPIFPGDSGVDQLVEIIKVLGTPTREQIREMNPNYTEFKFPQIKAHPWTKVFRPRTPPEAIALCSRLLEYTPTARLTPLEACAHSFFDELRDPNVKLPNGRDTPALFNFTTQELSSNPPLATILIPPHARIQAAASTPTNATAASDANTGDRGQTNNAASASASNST
The target in experiment [15] is T4, Serine/threonine-protein kinase Sgk3 (Homo sapiens) (UniProt Q96BR1).
T4 sequence (whole entry): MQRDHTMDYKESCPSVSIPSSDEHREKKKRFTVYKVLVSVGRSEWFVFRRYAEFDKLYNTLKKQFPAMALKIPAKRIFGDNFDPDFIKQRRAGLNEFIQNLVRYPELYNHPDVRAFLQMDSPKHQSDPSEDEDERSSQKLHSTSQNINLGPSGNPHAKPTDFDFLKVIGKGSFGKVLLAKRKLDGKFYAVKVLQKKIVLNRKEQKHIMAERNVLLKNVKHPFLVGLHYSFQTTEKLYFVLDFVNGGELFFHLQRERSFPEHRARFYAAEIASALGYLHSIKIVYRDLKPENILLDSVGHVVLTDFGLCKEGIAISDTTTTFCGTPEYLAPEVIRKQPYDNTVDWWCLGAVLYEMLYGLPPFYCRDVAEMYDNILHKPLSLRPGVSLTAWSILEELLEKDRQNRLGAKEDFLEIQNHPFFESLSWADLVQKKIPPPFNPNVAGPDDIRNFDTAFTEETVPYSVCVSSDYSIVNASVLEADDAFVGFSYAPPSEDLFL
Nature of the experiment: Inhibition of human SGKL at 18.6 nM by HotSpot assay relative to control.

Experiment [16] addresses MAP/microtubule affinity-regulating kinase 3 (Homo sapiens) (UniProt P27448). Nature of the experiment: Inhibition of human MARK3 at 18.6 nM by HotSpot assay relative to control.

CDK3/Cyclin E (Homo sapiens), sequence (P24864 whole entry, looked up): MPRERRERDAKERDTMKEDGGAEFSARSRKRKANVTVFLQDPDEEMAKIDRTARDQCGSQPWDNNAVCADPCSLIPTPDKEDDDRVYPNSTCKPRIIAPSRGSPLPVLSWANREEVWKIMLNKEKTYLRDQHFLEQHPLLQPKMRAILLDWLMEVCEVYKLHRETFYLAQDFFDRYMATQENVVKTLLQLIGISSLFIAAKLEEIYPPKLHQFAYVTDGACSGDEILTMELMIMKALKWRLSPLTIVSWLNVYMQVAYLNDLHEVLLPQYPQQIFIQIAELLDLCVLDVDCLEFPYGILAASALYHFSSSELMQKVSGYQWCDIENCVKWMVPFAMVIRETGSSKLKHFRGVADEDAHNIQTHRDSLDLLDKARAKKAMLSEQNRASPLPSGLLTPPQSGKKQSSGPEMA
CDK3/Cyclin E (Homo sapiens), sequence (Q00526 whole entry, looked up): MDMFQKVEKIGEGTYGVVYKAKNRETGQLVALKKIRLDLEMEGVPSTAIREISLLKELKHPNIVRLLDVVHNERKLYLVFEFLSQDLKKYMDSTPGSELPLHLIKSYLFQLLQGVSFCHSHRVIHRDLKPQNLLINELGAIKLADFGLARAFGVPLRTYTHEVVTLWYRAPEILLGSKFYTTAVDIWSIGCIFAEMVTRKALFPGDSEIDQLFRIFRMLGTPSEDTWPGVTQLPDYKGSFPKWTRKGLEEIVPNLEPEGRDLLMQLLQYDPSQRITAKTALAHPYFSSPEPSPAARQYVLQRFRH
BDNF/NT-3 growth factors receptor (Homo sapiens), sequence (Q16620 32-822 limits assumed): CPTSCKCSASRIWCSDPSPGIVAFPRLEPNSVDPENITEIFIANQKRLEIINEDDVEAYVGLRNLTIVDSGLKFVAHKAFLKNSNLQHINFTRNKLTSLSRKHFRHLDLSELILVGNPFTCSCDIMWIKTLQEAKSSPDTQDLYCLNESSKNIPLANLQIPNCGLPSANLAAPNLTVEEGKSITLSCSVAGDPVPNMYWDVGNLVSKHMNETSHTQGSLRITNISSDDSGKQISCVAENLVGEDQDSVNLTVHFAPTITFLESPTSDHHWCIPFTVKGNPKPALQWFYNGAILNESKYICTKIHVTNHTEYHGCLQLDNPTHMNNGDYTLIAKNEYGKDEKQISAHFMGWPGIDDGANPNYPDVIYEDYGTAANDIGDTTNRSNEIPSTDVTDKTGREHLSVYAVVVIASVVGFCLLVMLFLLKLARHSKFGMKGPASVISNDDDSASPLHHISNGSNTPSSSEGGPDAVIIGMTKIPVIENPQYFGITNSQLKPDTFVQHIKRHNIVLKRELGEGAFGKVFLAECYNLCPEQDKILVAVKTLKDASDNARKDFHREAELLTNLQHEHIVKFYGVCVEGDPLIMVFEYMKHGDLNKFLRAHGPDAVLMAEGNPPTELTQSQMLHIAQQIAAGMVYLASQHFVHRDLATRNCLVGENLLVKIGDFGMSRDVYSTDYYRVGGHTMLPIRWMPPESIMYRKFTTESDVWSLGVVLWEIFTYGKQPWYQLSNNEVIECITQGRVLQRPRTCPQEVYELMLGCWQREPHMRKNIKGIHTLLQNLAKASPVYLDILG
MAP/microtubule affinity-regulating kinase 3 (Homo sapiens), sequence (P27448 whole entry, looked up): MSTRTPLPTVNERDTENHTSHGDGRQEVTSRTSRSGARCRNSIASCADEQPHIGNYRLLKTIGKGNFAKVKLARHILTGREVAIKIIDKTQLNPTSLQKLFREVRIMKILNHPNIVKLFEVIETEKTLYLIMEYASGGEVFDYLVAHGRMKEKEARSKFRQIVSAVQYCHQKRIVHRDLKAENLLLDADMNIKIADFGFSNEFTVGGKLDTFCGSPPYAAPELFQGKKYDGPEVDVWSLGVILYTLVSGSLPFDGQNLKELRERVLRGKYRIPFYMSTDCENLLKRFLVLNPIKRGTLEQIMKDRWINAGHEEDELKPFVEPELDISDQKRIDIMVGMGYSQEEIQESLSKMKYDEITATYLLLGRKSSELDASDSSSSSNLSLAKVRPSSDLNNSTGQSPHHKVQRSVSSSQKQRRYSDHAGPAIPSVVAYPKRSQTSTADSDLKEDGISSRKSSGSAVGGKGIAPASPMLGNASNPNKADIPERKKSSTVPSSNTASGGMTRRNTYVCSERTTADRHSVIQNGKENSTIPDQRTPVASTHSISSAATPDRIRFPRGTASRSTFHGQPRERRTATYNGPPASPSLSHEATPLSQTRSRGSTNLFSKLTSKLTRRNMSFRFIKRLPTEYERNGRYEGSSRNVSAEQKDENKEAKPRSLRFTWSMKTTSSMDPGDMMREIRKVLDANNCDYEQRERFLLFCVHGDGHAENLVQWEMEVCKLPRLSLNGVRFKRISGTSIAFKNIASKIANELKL

In the case of `C[C@@]1(C(=O)Nc2ccc(F)nc2)CCCN1c1nc(Nc2cc(C3CC3)n[nH]2)c2cccn2n1`, the inhibition is 69.6% in experiment [1]; -3.98% in [2]; -4.67% in [3]; -1.69% in experiment [4]; -2.89% in experiment [5]; 0.42% in experiment [6]. The values for the inhibition in [7], in [8] and in experiment [9] were -5.65%, 0.91% and -0.86%, respectively.
With `Nc1n[nH]c2nnc(-c3c(-c4ccccc4)nn4ccccc34)cc12`, the inhibition in [10] is -3.88%.
In the case of `C[C@]1(O)C[C@@H](c2nc(-c3ccc4ccc(-c5ccccc5)nc4c3)c3c(N)nccn32)C1`, the inhibition is -1.46% in the experiment filed under Homo sapiens; 2.65% in [11]; 9.09% in experiment [12]; 1.97% in experiment [13]; 67.1% in experiment [14]; 0.11% in experiment [15]. For the same compound, the inhibition in experiment [16] is 2.43%.
